Experimental data from patent US8173598B2, “Myeloid protein activation of anti-inflammatory and anti-hypoxic pathway” (The Board of Trustees of the University of Illinois, priority 2008, dated 2012).
No end group written: not given here.

Key:
[1] = tested on: Human peripheral neutrophils; assay: Spontaneous oxidative activation of neutrophils (DCFH-DA oxidation); format: cell-based; settings: for rate of oxidation of the DCFH probe with soluble PAR ligands: soluble peptides given as 100 mM (FIG. 5); for rate of spontaneous oxidation of the DCFH-DA probe: 2.5 to 10 μg/ml of protein, followed over time, p <0.001 to <0.05; for oxidative metabolism (fluorescence emission of DCFH-DA probe): 1 h time point, all concentrations tested, P<0.05 compared to control; for spontaneous oxidation of the DCFH probe with protease inhibitors: α1 antichymotrypsin and elafin printed as 10 mM (FIG. 4)
Source text: (§1) Human peripheral neutrophils were isolated from heparinized blood donated by healthy volunteers according to a protocol approved by the University of Illinois Institutional Review Board. The cells were isolated using a Histopaque™ gradient (Sigma) according to the manufacturer's instructions. Cell viability and identity was confirmed by trypan blue staining. Live cells and neutrophils represented at least 95% of isolated leukocytes.
(§2) The method for the measurement of oxidative activation of neutrophils was based on the ROS-dependent oxidation of DCFH-DA to DCF and was adapted from Ciapetti et al. DCFH-DA crosses the cell membrane and is hydrolyzed by nonspecific esterases to nonfluorescent DCFH. Its oxidation by ROS results in the generation of highly fluorescent DCF [30]. DCFH-DA is therefore a widely accepted probe for the measurement of an overall index of oxidative activity. DCFH-DA was purchased from Calbiochem (Madison, Wis.). The assays were run in clear bottom black 96-well plate. “Edge effects” (a higher fluorescence in edge wells) were avoided by using only center wells. Briefly, 50 μl of Dulbecco's Phosphate Buffered Saline (DPBS) containing DCFH-DA was added to each well with the final concentration of […]. S100 proteins or PKC inhibitors were diluted in the wells. Just before a baseline reading 100,000 neutrophils in 50 μl PBS were placed in each well. 96-well plates were incubated at 37° C. and 5% CO2 and were read at baseline (immediately after cell addition to the plates) and at indicated time points in a Spectra Max Gemini XS fluorescent plate reader. The excitation wavelength was 485 and the reading was done at 530 nm. Wells with no DCFH-DA were used to measure background fluorescence which was subtracted from each reading. Controls with no cells were also analyzed and display no increased fluorescence over time. All assays were conducted in triplicate or quadruplicate wells.
In order to avoid differences between donors, experimental procedures and plate to plate variation, all experimental conditions and statistical analysis were run within one plate inclusive of all positive and negative controls. Single sample t-tests were calculated to test the S100A8, S100A9 and combined proteins in comparison to the control wells with alpha set to ≦0.05 to determine statistical significance. Comparisons between the S100A8, S100A9 and combined proteins were calculated with two sample t-tests using SPSS (SPSS Inc., Chicago, Ill.) with alpha set to ≦0.05 to determine statistical relevance.

[2] = tested on: Human peripheral neutrophils; assay: LPS stimulated neutrophil oxidative metabolism (DCFH-DA oxidation); format: cell-based
Source text: as §1, §2

[3] = tested on: thrombin receptors; assay: Calcium flux and thrombin-S100A8/A9 cross-desensitization in Chem-3 cells; format: cell-based; settings: for calcium flux in Chem-3 cells: each alone
Protocol: (§3) Screening for S100A8 and S100A9 activity on thrombin receptors including thrombin receptor desensitization were conducted with calcium flux assays in Chem 3 and PAR-4 expressing Chem.-1 cells by Millipore's GPCRProfiler(R) Service (Millipore, St. Charles, Mo.; see website Millipore website on the internet).

[4] = biological target: T1, PAR-4 (Homo sapiens, UniProt Q96RI0); assay: Calcium flux and desensitization to thrombin in PAR-4 expressing Chem.-1 cells; format: cell-based
T1 construct: host or cells: Chem-1 cells
T1 sequence (Q96RI0 18-385): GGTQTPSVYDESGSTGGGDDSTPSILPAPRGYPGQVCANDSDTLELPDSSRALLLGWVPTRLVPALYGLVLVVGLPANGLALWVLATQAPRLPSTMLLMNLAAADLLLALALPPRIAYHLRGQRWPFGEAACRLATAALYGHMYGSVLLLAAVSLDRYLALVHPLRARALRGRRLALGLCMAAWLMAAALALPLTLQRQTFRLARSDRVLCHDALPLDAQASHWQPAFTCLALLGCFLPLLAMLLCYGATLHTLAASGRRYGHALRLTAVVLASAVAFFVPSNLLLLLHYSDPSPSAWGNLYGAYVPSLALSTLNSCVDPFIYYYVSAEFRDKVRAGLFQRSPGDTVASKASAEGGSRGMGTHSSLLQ
Protocol: as §3

[5] = tested on: neutrophils; settings: in-vitro; Sroussi et al., 2006, 2007; cited from earlier work
[6] = tested on: Human peripheral neutrophils; assay: PMA induced activation of neutrophil oxidative metabolism (DCFH-DA oxidation); format: cell-based
Source text: as §1, §2

[7] = 0.01 mU/ml ADA1, S100 proteins 10 to 2.5 μg/ml

TFRGAP-NH2 [PAR-3, reference compound]
rate of oxidation of the DCFH probe with soluble PAR ligands [1]: not PAR-1, PAR-2 or PAR-3

GYPGQV-NH2 [PAR-4, reference compound]
rate of oxidation of the DCFH probe with soluble PAR ligands [1]: resulted in a significantly accelerated rate of oxidation of the DCFH probe

S100A9: recombinant human S100A9 calcium binding protein, expressed in Escherichia coli as GST fusion, GST tag cleaved
LPS stimulation of neutrophil oxidative activity ([2]; 2.5 to 10 μg/ml of protein, LPS 10 μg/ml): strongly inhibited LPS stimulation of neutrophil oxidative activity | calcium flux in Chem-3 cells [3]: trigger calcium flux in Chem-3 cells in a dose dependent manner | calcium flux in PAR-4 expressing cells ([4]; data not shown): activated calcium flux in those cells | desensitization of PAR-4 expressing cells to thrombin activation ([4]; previous treatment with different concentrations, then 10 nM thrombin): dose dependently desensitized PAR-4 expressing cells to thrombin activation | rate of spontaneous oxidation of the DCFH-DA probe [1]: reduced the rate at which spontaneous oxidation of the DCFH-DA probe occurred in a dose dependent manner | oxidative metabolism (fluorescence emission of DCFH-DA probe) [1]: significantly inhibited oxidative metabolism at all concentrations tested | neutrophil chemotaxis toward bacterial products (formylated peptides) [5]: inhibit neutrophil chemotaxis toward bacterial products | PMA activation of neutrophils ([6]; dose dependent): produced a dose dependent inhibition of PMA activation of neutrophils

SLIGKV-NH2 [PAR-2, reference compound]
rate of oxidation of the DCFH probe with soluble PAR ligands [1]: not PAR-1, PAR-2 or PAR-3

COc1ccccc1NC(=O)Nc1nc(-c2cccnc2)nc2ccccc12 [VUF5574, N-(2-methoxyphenyl)-N′-[2-(3-pyridinyl)-4-quinazolinyl]-urea, reference compound]
effect on anti-oxidative effect of S100A8 and S100A9, LPS exposed neutrophils ([2]; 10 μM, 10 μg/ml LPS): This anti-oxidative effect was countered | effect on anti-oxidative effect of S100A8, spontaneous oxidative metabolism ([1]; 2.5 μg/ml S100A8, 1 hour): produces a dose sensitive inhibition the anti-oxidative effect of S100A8 on neutrophil spontaneous oxidative metabolism

elafin: inhibitor of PR3 and elastase (AQEPVKGPVSTKPGSCPIILIRCAMLNPPNRCLKDTDCPGIKKCCEGSCGMACFVPQ; ends and bridges not checked; cysteine pairing not given here; UniProt P19957 61-117, looked up) [reference compound]
spontaneous oxidation of the DCFH probe with protease inhibitors [1]: no effect on DCFH oxidation

CCCCCCCCCCCCCC(=O)O[C@@H]1[C@@H](C)[C@@]2(O)[C@@H](C=C(CO)C[C@]3(O)C(=O)C(C)=C[C@@H]23)[C@@H]2C(C)(C)[C@]12OC(C)=O [PMA, phorbol 12-myristate 13-acetate, reference compound]
rate of DCFH oxidation by a PKC activator ([1]; 1 μM PMA): significantly accelerated the rate of DCFH oxidation

TFLLRN [PAR-1, reference compound]
rate of oxidation of the DCFH probe with soluble PAR ligands [1]: not PAR-1, PAR-2 or PAR-3

CN(C)CCCn1cc(C2=C(c3c[nH]c4ccccc34)C(=O)NC2=O)c2ccccc21 [GFX, Bisindolylmaleimide I, reference compound]
spontaneous activation of neutrophils oxidative metabolism ([1]; 5 μM GFX): significantly inhibited both the PMA induced and the spontaneous activation of neutrophils oxidative metabolism | PMA induced activation of neutrophils oxidative metabolism ([6]; 5 μM GFX, 1 μM PMA): significantly inhibited both the PMA induced and the spontaneous activation of neutrophils oxidative metabolism

thrombin [reference compound]
desensitization of Chem-3 cells to S100A8 or S100A9 stimulation ([3]; 10 nM thrombin first, then 10 μM S100A8 or 10 μM S100A9): resulted in a desensitization of Chem-3 cells to further stimulation | calcium flux in Chem-3 cells [3]: trigger calcium flux in Chem-3 cells in a dose dependent manner

B1: calprotectin: mixture of S100A8 and S100A9 at a 1:1 weight ratio referred to as calprotectin (protein)
chain 1: MLTELEKALNSIIDVYHKYSLIKGNFHAVYRDDLKKLLETECPQYIRKKGADVWFKELDINTDGAVNFQEFLILVIKMGVAAHKKSHEESHKE
chain 2: MTCKMSQLERNIETIINTFHQYSVKLGHPDTLNQGEFKELVRKDLQNFLKKENKNEKVIEHIMEDLDTNADKQLSFEEFIMLMARLTWASHEKMHEGDEGPGHHHKPGLGEGTP
rate of spontaneous oxidation of the DCFH-DA probe [1]: reduced the rate at which spontaneous oxidation of the DCFH-DA probe occurred in a dose dependent manner | oxidative metabolism (fluorescence emission of DCFH-DA probe) [1]: significantly inhibited oxidative metabolism at all concentrations tested

B2: α1 antichymotrypsin: α1-Antichymotrypsin from human plasma; inhibits cathepsin G (protein)
chain: HPNSPLDEENLTQENQDRGTHVDLGLASANVDFAFSLYKQLVLKAPDKNVIFSPLSISTALAFLSLGAHNTTLTEILKGLKFNLTETSEAEIHQSFQHLLRTLNQSSDELQLSMGNAMFVKEQLSLLDRFTEDAKRLYGSEAFATDFQDSAAAKKLINDYVKNGTRGKITDLIKDLDSQTMMVLVNYIFFKAKWEMPFDPQDTHQSRFYLSKKKWVMVPMMSLHHLTIPYFRDEELSCTVVELKYTGNASALFILPDQDKMEEVEAMLLPETLKRWRDSLEFREIGELYLPKFSISRDYNLNDILLQLGIEEAFTSKADLSGITGARNLAVSQVVHKAVLDVFEEGTEASAATAVKITLLSALVETRTIVRFNRPFLMIIVPTDTQNIFFMSKVTNPKQA
spontaneous oxidation of the DCFH probe with protease inhibitors [1]: caused a marked and significant reduction in the oxidation of the DCFH probe

B3: ADA1: Human adenosine deaminase from human erythrocytes; deaminates adenosine to inosine (protein, UniProt P00813 2-363, looked up)
Adenosine deaminase: AQTPAFDKPKVELHVHLDGSIKPETILYYGRRRGIALPANTAEGLLNVIGMDKPLTLPDFLAKFDYYMPAIAGCREAIKRIAYEFVEMKAKEGVVYVEVRYSPHLLANSKVEPIPWNQAEGDLTPDEVVALVGQGLQEGERDFGVKARSILCCMRHQPNWSPKVVELCKKYQQQTVVAIDLAGDETIPGSSLLPGHVQAYQEAVKSGIHRTVHAGEVGSAEVVKEAVDILKTERLGHGYHTLEDQALYNRLRQENMHFEICPWSSYLTGAWKPDTEHAVIRLKNDQANYSLNTDDPLIFKSTLDTDYQMTKRDMGFTEEEFKRLNINAAKSSFLPEDEKRELLDLLYKAYGMPPSASAGQNL
effect on S100A8/S100A9 inhibition of LPS stimulated oxidative metabolism [2, 7]: partially or fully abrogated | effect on S100A8/S100A9 inhibition of spontaneous oxidative metabolism [1, 7]: partially or fully abrogated
